The record followed here is US5021421A, “2-(1-Piperazinyl)-4-phenylcycloalkanopyridine derivatives, processes for the production thereof, and pharmaceutical composition containing the same” (Dainippon Pharmaceutical Co., Ltd., priority 1989, dated 1991).

Molecules are shown by their SMILES. Read-outs that look alike come from different tables or passages of the source.

In one assay the test system is exploratory activity. As to the kind of experiment: Inhibitory effect on exploratory activity (Animex activity meter). In kind it is in vivo, mice (Std-ddy strain). Conditions: oral, 2 h after administration, 3 min counting; dose not given. As to the method:
A group of 5 male mice (Std-ddy strain, 20-25 g) was used. Two hours after oral administration of the test compound, mice were placed individually in a test box (23×35×30 cm) on Animex activity meter (Farad Co.). Immediately thereafter, activity counting was started and lasted for three minutes. The mean counts of the compound-treated group were compared with those of the corresponding control (non-dosed) group, and the percent inhibition was calculated.

The test system of assay [1] is apomorphine-induced vomiting. As to the kind of experiment: Antagonistic effect on apomorphine-induced vomiting. In kind it is in vivo, dogs (Beagle). Conditions: Canis lupus familiaris, sc, apomorphine 0.3 mg/kg s.c. 2 h after compound, read-out: Inhibitory ratio (apomorphine-induced vomiting). As to the method: A group of 3-4 dogs (Beagle, 8-15 kg) was used for examining effects on the test compounds on apomorphine-induced vomiting, a known test for evaluating neuroleptic drugs.
Each dog was given a subcutaneous injection of apomorphine hydrochloride (0.3 mg/kg) two hours after the treatment of the test compounds. Then, the frequency of oral vomiting was counted for one hour. The mean counts of the compound-treated group were compared with those of the corresponding control (non-dosed) group, and the percent inhibition was calculated.

The test system of assay [2] is brain monoamine metabolites. As to the kind of experiment: Increasing effect on concentration of brain monoamine metabolites. In kind it is in vivo, mice (Std-ddy strain). To be noted: Mus musculus, 2 h, non-dosed=100. The protocol:
A group of 5 male mice (Std-ddy strain, 25-30 g) was used for examining effect of the test compounds on concentration of brain monoamine metabolites.
Mice were killed by decapitation 2 hours after treatment with the test compounds. Brains were quickly taken out, homogenized in 1N formic acid-acetone solution, and centrifuged in a refrigerated ultracentrifuge. The supernatant was evaporated by blowing with N2 gas. Then, the residue was again resolved in 0.01 N acetic acid, and served for determining concentration of dopamine metabolites, 3,4-dihydroxyphenylacetic acid (DOPAC) and homovanillic acid (HVA), a norepinephrine metabolite, 3-methyl-4-hydroxyphenylethylene glycol (MOPEG), and a serotonin metabolite, 5-hydroxyindole-3-acetic acid (5-HIAA) concentrations by HPLC with electrochemical detection. The effect of the test compounds on concentration of each monoamine metabolite is shown as % of control (level of non-dosed animals=100) in Table 4.

The next assay has as its target T1, dopamine (D2) receptor (Rattus norvegicus, UniProt P61169).
T1 construct: Crude synaptosome fractions were prepared from some brain regions in rats for receptor sources; from tissue
The assay can be described thus: In vitro binding to dopamine (D2) receptor, [3H] spiperone. More on the design: species or system rats. Conditions: [3H] spiperone, rat brain crude synaptosome fraction; read-out: IC50 D2. The protocol:
Dopamine (D2), serotonin (S1, S2) and adrenaline (α1) receptor binding assays were carried out according to the methods of I. Creese et al. [Eur. J. Pharmacol., 46, 377 (1977), S. J. Peroutka et al. [Mol. Pharmacol. 16, 687 (1979)], J. E. Leysen et al. [Mol. Pharmacol., 21, 301 (1982)] and D. C. U'Prichard et al. [Mol. Pharmacol., 13, 454 (1977)], respectively.
Crude synaptosome fractions were prepared from some brain regions in rats for receptor sources. Radioactive ligands used were [^3 H] spiperone (D2), [^3 H] serotonin (S1), [^3 H] ketanserin (S2) and [^3 H] WB-4101 (α1). The binding assay was performed by incubating aliquots of synaptosome fraction in buffer solution (final volume: 1 ml) containing a [^3 H] labelled ligand and a test compound. The assay was terminated by rapid filtration through Whatman GF/B glass fiber filters attached to a cell-harvester (Brandel) and radioactivity on the filters was counted in a Packard Triscarb scintillation counter. Specific binding was calculated as a difference between amounts of radioactivity in the presence and absence of an unlabelled ligand [spiperone (D2), serotonin (S1), methysergide (S2) and prazosin (α1)]. The IC50 value of the test compounds (concentration causing 50% inhibition of [^3 H] ligand specific binding) was determined by probit analysis.

[3] abbreviates: read-out: 5-HIAA concentration, % of control.
The mark [4] stands for this setting: read-out: DOPAC concentration, % of control.
The mark [5] stands for this setting: read-out: HVA concentration, % of control.
The mark [6] stands for this setting: read-out: MOPEG concentration, % of control.

T1 sequence (P61169 whole entry): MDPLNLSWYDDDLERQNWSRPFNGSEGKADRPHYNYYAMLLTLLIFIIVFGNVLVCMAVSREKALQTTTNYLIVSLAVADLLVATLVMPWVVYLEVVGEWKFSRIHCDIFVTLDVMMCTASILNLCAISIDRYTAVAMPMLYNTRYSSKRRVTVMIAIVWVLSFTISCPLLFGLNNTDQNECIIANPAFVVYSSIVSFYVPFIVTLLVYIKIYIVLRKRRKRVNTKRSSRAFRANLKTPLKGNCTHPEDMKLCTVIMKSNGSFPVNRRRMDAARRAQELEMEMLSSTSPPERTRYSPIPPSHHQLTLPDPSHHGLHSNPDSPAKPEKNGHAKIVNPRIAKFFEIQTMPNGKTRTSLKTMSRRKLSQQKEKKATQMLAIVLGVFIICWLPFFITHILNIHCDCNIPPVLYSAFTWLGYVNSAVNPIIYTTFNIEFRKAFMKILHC

`CCN1CCN(c2cc(-c3ccc(Cl)cc3)c3c(n2)CCCCC3)CC1` [Example 31]: the “Inhibitory ratio (exploratory activity)” value in the assay on exploratory activity was found to be 62.5%.

As for `CCN1CCN(c2cc(-c3ccccc3)c3c(n2)CCCCCC3)CC1` [Example 36], in assay [1], the inhibition in vivo at 0.5 mg/kg came out at 81%. In addition, the “Inhibitory ratio (exploratory activity)” value with exploratory activity amounted to 68.4%.

Turning to `OCCN1CCN(c2cc(-c3ccc(F)cc3)c3c(n2)CCCCCC3)CC1` [Example 37, 2-[4-(2-Hydroxyethyl)-1-piperazinyl]-4-(4-fluorophenyl)-5,6,7,8,9,10-hexahydrocycloocta[b]pyridine], in assay [1], the inhibition in vivo at 0.3 mg/kg amounted to 80%. For the same compound, the response vs control in vivo at 3 mg/kg in assay [2] (setting [3]) was found to be 95%; in assay [2] (setting [4]), 268%; in assay [2] (setting [5]), 203%; in assay [2] (setting [6]), 143%.

`Fc1ccc(-c2cc(N3CCN(C4CCCC4)CC3)nc3c2CCCCCC3)cc1` [Example 38]: the “Inhibitory ratio (exploratory activity)” value with exploratory activity is recorded as 58.9%.

On to `OCCN1CCN(c2cc(-c3ccc(F)cc3F)c3c(n2)CCCCCC3)CC1` [Example 53], for which the “Inhibitory ratio (exploratory activity)” value in the assay on exploratory activity amounted to 68.1%.

`CCN1CCN(c2cc(-c3ccc(F)cc3)c3c(n2)CCCCCCC3)CC1` [Example 56]: the inhibition in vivo at 0.5 mg/kg in assay [1] amounted to 85%. Besides, the response vs control in vivo at 10 mg/kg in assay [2] (setting [3]) was 110%; in assay [2] (setting [4]), 302%; in assay [2] (setting [5]), 249%; in assay [2] (setting [6]) it was 106%.

In the case of `CCN1CCN(c2cc(-c3ccccc3)c3c(n2)CCC(C)C3)CC1` (stereo not drawn) [Example 57], the “Inhibitory ratio (exploratory activity)” value in the assay on exploratory activity was 77.2%.

For the compound `CCN1CCN(c2cc(-c3ccc(F)cc3)c3c(n2)CCC(C)(C)C3)CC1` [Example 66], the inhibition in vivo at 1 mg/kg in assay [1] (dose 1.0 mg/kg) came to 95%. Moreover, the response vs control in vivo at 2 mg/kg was 116% in assay [2] (setting [3]), 311% in assay [2] (setting [4]), 308% in assay [2] (setting [5]) and 111% in assay [2] (setting [6]).

Take `CCN1CCN(c2cc(-c3ccc(F)cc3)c3c(n2)C2CCC3CC2)CC1` [Example 75]: the “Inhibitory ratio (exploratory activity)” value with exploratory activity is listed as 78.9%.

Regarding `CC1CN(c2cc(-c3ccc(F)cc3)c3c(n2)CCCCCC3)CCN1` (stereo not drawn) [Example 83, 2-(3-Methyl-1-piperazinyl)-4-(4-fluorophenyl)-5,6,7,8,9,10-hexahydrocycloocta[b]pyridine], the “Inhibitory ratio (exploratory activity)” value in the assay on exploratory activity is recorded as 53.5%.

Turning to `Fc1ccc(-c2cc(N3CCNCC3)nc3c2CCCCCC3)c(F)c1` [Example 106], in the assay on exploratory activity, the “Inhibitory ratio (exploratory activity)” value is 74.9%.

For `c1ccc(-c2cc(N3CCNCC3)nc3c2C2CCC3C2)cc1` (stereo not drawn) [Example 107], the “Inhibitory ratio (exploratory activity)” value in the assay with exploratory activity is listed as 53.2%.

In the case of `CN1CCN(c2cc(-c3ccc(F)cc3)c3c(n2)CCC3)CC1` [Example 111, 2-(4-methyl-1-piperazinyl)-4-(4-fluorophenyl)-6,7-dihydro-5H-1-pyrindine], the “Inhibitory ratio (exploratory activity)” value with exploratory activity is on record as 74.0%.

Consider `CN1CCN(c2cc(-c3ccc(F)cc3)c3c(n2)CCCCCC3)CC1.O=C(O)/C=C\C(=O)O.O=C(O)/C=C\C(=O)O` [Example 112, 2-(4-Methyl-1-piperazinyl)-4-(4-fluorophenyl)-5,6,7,8,9,10-hexahydrocycloocta[b]pyridine dimaleate], for which the inhibition in vivo at 0.2 mg/kg in assay [1] came out at 94%. Further, the “Inhibitory ratio (exploratory activity)” value in the assay on exploratory activity was found to be 73.2%.

Take `CN1CCN(c2cc(-c3ccc(F)cc3F)c3c(n2)CCCCCC3)CC1` [Example 114, 2-(4-Methyl-1-piperazinyl)-4-(2,4-difluorophenyl)-5,6,7,8,9,10-hexahydrocycloocta[b]pyridine]: the inhibition in vivo at 0.2 mg/kg in assay [1] is 89%. Moreover, in the assay with exploratory activity, the “Inhibitory ratio (exploratory activity)” value was found to be 81.9%.

On to `CCCN1CCN(c2cc(-c3ccc(F)cc3)c3c(n2)CCCCCC3)CC1` [Example 118, 2-(4-n-propyl-1-piperazinyl)-4-(4-fluorophenyl)-5,6,7,8,9,10-hexahydrocycloocta[b]pyridine], for which the inhibition in vivo at 0.3 mg/kg in assay [1] amounted to 94%. Moreover, the response vs control in vivo at 3 mg/kg in assay [2] (setting [3]) was found to be 110%; in assay [2] (setting [4]) it was 302%; in assay [2] (setting [5]) it was 250%; in assay [2] (setting [6]) it was 129%.

Regarding `CC(C)N1CCN(c2cc(-c3ccc(F)cc3)c3c(n2)CCCCCC3)CC1` [Example 121], the inhibition in vivo at 0.5 mg/kg in assay [1] turned out to be 93%. Moreover, the response vs control in vivo at 10 mg/kg was found to be 111% in assay [2] (setting [3]), 312% in assay [2] (setting [4]) and 215% in assay [2] (setting [5]).

Regarding `CCCCN1CCN(c2cc(-c3ccc(F)cc3)c3c(n2)CCCCCC3)CC1` [Example 122, 2-(4-n-Butyl-1-piperazinyl)-4-(4-fluorophenyl)-5,6,7,8,9,10-hexahydrocycloocta[b]pyridine], the inhibition in vivo at 0.5 mg/kg in assay [1] amounted to 100%. Further, the results for the response vs control in vivo at 2 mg/kg in assay [2] (setting [3]), in assay [2] (setting [4]) and in assay [2] (setting [5]) were 100%, 306% and 229%, respectively. Besides, the “Inhibitory ratio (exploratory activity)” value with exploratory activity worked out at 81.3%.

On to `CCCCCN1CCN(c2cc(-c3ccc(F)cc3)c3c(n2)CCCCCC3)CC1` [Example 123, 2-(4-n-Pentyl-1-piperazinyl)-4-(4-fluorophenyl)-5,6,7,8,9,10-hexahydrocycloocta[b]pyridine], for which the “Inhibitory ratio (exploratory activity)” value in the assay on exploratory activity is listed as 72.2%.

As to `C=CCN1CCN(c2cc(-c3ccc(F)cc3)c3c(n2)CCCCCC3)CC1` [Example 125], the “Inhibitory ratio (exploratory activity)” value with exploratory activity is recorded as 57.9%.

Regarding `CCCN1CCN(c2cc(-c3ccc(F)cc3F)c3c(n2)CCCCCC3)CC1` [Example 127, 2-(4-n-propyl-1-piperazinyl)-4-(2,4-difluorophenyl)-5,6,7,8,9,10-hexahydrocycloocta[b]pyridine], the “Inhibitory ratio (exploratory activity)” value in the assay on exploratory activity was 80.3%.

For orientation: IC50 means the concentration needed to halve the response being measured. As for `COc1ccc(-c2cc(N3CCN(c4ccccc4)CC3)nc(C)c2-c2ccc(OC)cc2)cc1` [Test Compound B, 4,5-Bis-(4-methoxyphenyl)-6-methyl-2-(4-phenylpiperazino)pyridine, reference compound], the inhibition in vivo at 3 mg/kg in assay [1] is 13%. In addition, the IC50 on dopamine (D2) receptor was over 10 µM.

Turning to `Cc1nc(N2CCN(c3ccccc3)CC2)cc(-c2ccc(O)cc2)c1-c1ccc(O)cc1` [Test Compound C, 4,5-Bis-(4-hydroxyphenyl)-6-methyl-2-(4-phenylpiperazino)pyridine, reference compound], the inhibition in vivo at 3 mg/kg in assay [1] was found to be 16%. Besides, the IC50 on dopamine (D2) receptor is over 10 µM.
